For 7 molecules, IC50, Ki and CC50 results are on record in ChEMBL document CHEMBL2016505, “Footprint-based identification of viral entry inhibitors targeting HIVgp41” (Bioorg Med Chem Lett, 2012).

Structures are written as SMILES.

The nature of data set [1]: Inhibition of HIV1 3B gp41-mediated cell-cell fusion between viral envelope expressing virus-infected HL2/3 cells to human MAGI-CCR5 cells after 6 hrs by luciferase reporter gene assay. Conditions: Human immunodeficiency virus 1, MAGI-CCR5, 6 h. The data set is classed as cell-based. In general terms: A reporter such as luciferase makes a cellular process visible.
A short description of data set [2]: Binding affinity to gp41 in HIV1 by fluorescence analysis. More on the design: species or system Human immunodeficiency virus 1.
Data set [3] can be described thus: Cytotoxicity against human MAGI-CCR5 cells assessed as cell viability by MTS assay. The class given is cell-based. For orientation: Tetrazolium assays rely on reduction of a dye to a coloured formazan, in cell work by metabolically active cells.

Broadly, the IC50 is the point on the concentration scale where inhibition reaches its midpoint. A higher IC50 goes with weaker potency. What is called Ki is the dissociation constant of the complex between target and ligand, obtained from inhibition or displacement. Read a low Ki as tighter binding. Usually CC50 stands for the concentration giving 50% cytotoxicity. For the molecule `CCc1nc2nc(CSc3nnc(NC(=O)COc4ccc(C)c(C)c4)s3)cc(O)n2n1`, the IC50 in data set [1] is 53.5 µM. The same molecule returned a Ki in data set [2] of 2.55 µM. The CC50 in data set [3] was > 50 µM.
Taken in the same sequence, the figures for `O=C(O)c1cccc(N/N=C2\C(=O)N(c3nc(-c4ccccc4)cs3)N=C2c2ccccc2)c1` were 4.64 µM, 0.2 µM and 53 µM.
Take `Cc1ccc(-c2nc(SCC(=O)Nc3ccc(C)c(C)c3)n3[nH]c(=O)cc3n2)cc1`: the IC50 in data set [1] was found to be 13.3 µM. This molecule showed a Ki in data set [2] of 0.46 µM. The CC50 in data set [3] is > 50 µM.
As for `O=C(CN1C(=O)N/C(=C/c2ccccc2OCc2ccc(C(=O)O)cc2)C1=O)Nc1ccccc1`, in data set [1], inhibition was half-maximal at 34 µM (IC50). Moreover, the Ki in data set [2] worked out at 7.1 µM. The CC50 in data set [3] was > 50 µM.
On the same counts, the results for `COc1ccc(C(=O)Oc2ccc(Br)cc2/C=N/N=C2\NC(=O)[C@H](CC(=O)O)S2)cc1` are 41.1 µM, 1.6 µM and 208 µM.
On the same counts, the results for `Cc1cccc(NC(=O)CN2C(=O)N/C(=C/c3cccn3-c3cccc(C(=O)O)c3)C2=O)c1` are 160 µM, 4.45 µM and > 100 µM.
`Cc1ccc(OCCn2cc(/C=C/C(=O)O)c3ccccc32)cc1`: it took 43 µM to reach half-maximal inhibition in data set [1] (IC50). The molecule also yielded a Ki in data set [2] of 13 µM. The CC50 in data set [3] is > 50 µM.
